Values of other authors in patent publication EP4406531A1, “DOSAGE FORM FOR INTRA-ARTICULAR INJECTION […] AN […] IN THE TREATMENT OF CRYSTAL-AND NON-CRYSTAL […] IN[…]” (PK MED, priority 2023, dated 2024).

Details: literature (Niel et al. 2006)

## COc1cc2c(c(OC)c1OC)-c1ccc(OC)c(=O)cc1[C@@H](NC(C)=O)CC2 [colchicine, N-[(7S)-1,2,3,10-tetramethoxy-9-oxo-6,7-dihydro-5H-benzo[a]heptalen-7-yl]acetamide]
  lethal dose: 0.8 mg/kg
  toxicity limit: 0.1 mg/kg
